Experimental data published in patent US11866407B2 (priority 2021, dated 2024).
Read-outs that look alike come from different tables or passages of the source. Residues, ends and D or L forms follow the SMILES beside them. *: point of attachment. Cbz = O=C(OCc1ccccc1)*; CH2F = FC*

Columns and labels:
SARS-CoV-2 M^pro = SARS-CoV-2 M^pro (Severe acute respiratory syndrome coronavirus 2, UniProt P0DTD1); experiment: FRET-based enzymatic assay, SARS-CoV-2 Mpro; assay type: biochemical
PL^pro = PL^pro (Severe acute respiratory syndrome coronavirus 2, UniProt P0DTD1); experiment: PLpro protease inhibition (Table 2); assay type: biochemical, SARS-CoV-2
[1] = Cytotoxicity in Calu-3 cells; assay type: cell-based; settings: human
[2] = Cytotoxicity in Vero E6 cells; settings: African green monkey
in vitro [3] = settings: African green monkey
[4] = test system: M^pros from all seven human coronaviruses; experiment: Thermal shift binding assay (DSF); settings: indicating protein stabilization
SARS-CoV-2 [5] = experiment: SARS-CoV-2 antiviral immunofluorescence assay; assay type: cell-based; settings: both cell lines (Vero E6 and Caco2-ACE2)
HCoV-OC43 = HCoV-OC43 plaque assay; assay type: cell-based; settings: Betacoronavirus 1, OC43, RD cells
HCoV-229E = HCoV-229E CPE assay; assay type: cell-based; settings: Human coronavirus 229E
HCoV-NL63 = HCoV-NL63 CPE assay; assay type: cell-based; settings: with vs without CP-100356
in vitro [6] = settings: human, Caco-2
in vitro [7] = settings: human
calpain I = target: T1, calpain I (Homo sapiens, UniProt P07384); experiment: Calpain I enzymatic assay; assay type: biochemical
T1 construct: purchased Sigma-Aldrich C6108
T1 sequence (P07384 1-714): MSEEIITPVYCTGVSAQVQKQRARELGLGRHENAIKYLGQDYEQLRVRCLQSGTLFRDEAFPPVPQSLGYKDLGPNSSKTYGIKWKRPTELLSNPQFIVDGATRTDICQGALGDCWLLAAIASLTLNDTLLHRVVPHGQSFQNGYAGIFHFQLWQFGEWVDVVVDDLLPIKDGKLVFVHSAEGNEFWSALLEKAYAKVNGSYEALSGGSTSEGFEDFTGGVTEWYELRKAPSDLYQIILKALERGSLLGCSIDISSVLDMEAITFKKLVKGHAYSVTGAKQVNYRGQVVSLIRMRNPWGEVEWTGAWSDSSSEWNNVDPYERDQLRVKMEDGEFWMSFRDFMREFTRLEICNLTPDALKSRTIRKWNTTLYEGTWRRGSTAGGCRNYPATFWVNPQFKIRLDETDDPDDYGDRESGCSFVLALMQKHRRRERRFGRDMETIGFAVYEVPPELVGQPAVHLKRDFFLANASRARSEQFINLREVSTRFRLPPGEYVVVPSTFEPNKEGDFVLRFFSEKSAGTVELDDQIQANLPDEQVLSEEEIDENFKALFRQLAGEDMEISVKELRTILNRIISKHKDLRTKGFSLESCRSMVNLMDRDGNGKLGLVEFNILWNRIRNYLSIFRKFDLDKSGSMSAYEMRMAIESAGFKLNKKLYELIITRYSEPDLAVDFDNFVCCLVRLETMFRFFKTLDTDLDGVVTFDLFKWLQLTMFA
T1 sequence (P04632 1-268 partner): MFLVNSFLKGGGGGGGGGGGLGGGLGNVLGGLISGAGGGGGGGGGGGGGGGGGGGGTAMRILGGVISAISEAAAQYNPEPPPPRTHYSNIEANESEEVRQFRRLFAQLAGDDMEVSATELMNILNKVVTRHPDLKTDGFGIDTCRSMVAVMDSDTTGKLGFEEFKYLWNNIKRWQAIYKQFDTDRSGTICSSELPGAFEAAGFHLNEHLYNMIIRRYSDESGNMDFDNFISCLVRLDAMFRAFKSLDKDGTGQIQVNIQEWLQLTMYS
Method: (§1) Calpain I, Cathepsin L and Cathepsin K enzymatic assays were carried as previously described.^33

cathepsin L = target: T2, cathepsin L (Homo sapiens, UniProt P07711); experiment: Cathepsin L enzymatic assay; assay type: biochemical
T2 construct: purchased EMD Millipore 219402
Method: as §1

SARS-CoV-2 [8] = experiment: Antiviral activity in Calu-3 cells (Table 2); assay type: cell-based; settings: Severe acute respiratory syndrome coronavirus 2, Calu-3
caspase-3 = target: T3, caspase-3 (Homo sapiens, UniProt P42574); experiment: Caspase-3 enzymatic assay; assay type: biochemical
T3 construct: purchased BioVision 1083-25
T3 sequence (P42574 29-175 limits assumed): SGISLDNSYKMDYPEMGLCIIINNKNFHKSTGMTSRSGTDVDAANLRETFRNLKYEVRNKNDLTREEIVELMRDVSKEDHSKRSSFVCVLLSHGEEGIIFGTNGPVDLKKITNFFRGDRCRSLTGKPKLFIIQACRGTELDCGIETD
T3 sequence (P42574 176-277 limits assumed): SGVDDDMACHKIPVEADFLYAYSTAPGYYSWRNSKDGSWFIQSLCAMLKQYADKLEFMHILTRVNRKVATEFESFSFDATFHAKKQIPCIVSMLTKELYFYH
Method: Caspase-3 enzymatic assay was carried out as follows: 1 unit Caspase-3 protein was diluted into 1600 μl reaction buffer (20 mM HEPES pH7.4, 2 mM EDTA, 0.1% CHAPS and 5 mM DTT); 100 μl diluted protein was incubated with 1 μl various concentration of testing compounds for 30 min at 30° C.; the enzymatic reaction was initiated by adding 1 μl of 2 mM Ac-DEVD-AFC (Medchemexpress, Catalog #HY-P1005). The reaction was monitored a Molecular Devices SpectraMax iD3 plate reader with excitation at 400 nm and emission at 505 nm at 30° C. for 1 hour. The IC50 values were calculated as described in the previous section.

T2 sequence (P07711 114-333): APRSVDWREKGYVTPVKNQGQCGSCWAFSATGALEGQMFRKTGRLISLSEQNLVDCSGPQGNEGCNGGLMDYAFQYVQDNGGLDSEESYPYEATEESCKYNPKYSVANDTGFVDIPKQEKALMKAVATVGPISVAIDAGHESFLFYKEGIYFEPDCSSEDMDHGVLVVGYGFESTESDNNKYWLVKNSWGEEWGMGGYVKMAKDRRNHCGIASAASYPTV

## CC(C)C[C@H](NC(=O)[C@H](Cc1ccccc1)NC(=O)OCc1ccccc1)C(=O)N[C@@H](C[C@@H]1CCNC1=O)C(=O)C(=O)NCc1ccccc1
SARS-CoV-2 M^pro
  IC50: 90 nM
PL^pro
  IC50: > 20000 nM

## CC(C)C[C@H](NC(=O)OCc1ccc(NC(=O)CCC(=O)NCCOCCOCCNc2cccc3c2C(=O)N(C2CCC(=O)NC2=O)C3=O)cc1)C(=O)N[C@@H](C[C@@H]1CCNC1=O)C(=O)C(=O)NC1CC1 (stereo partly shown)
SARS-CoV-2 M^pro
  IC50: 110 nM
PL^pro
  IC50: > 20000 nM
[1]
  CC50: > 250000 nM
[2]
  CC50: > 250000 nM

## CC1(C)[C@@H]2C(C(=O)N[C@@H](C[C@@H]3CCNC3=O)C(=O)C(=O)NC3CC3)N(C(=O)OCc3ccccc3)C[C@@H]21 (stereo partly shown)
SARS-CoV-2 M^pro
  IC50: 200 nM
In vitro [3]
  CC50: > 250000 nM

## CCOC(=O)/C=C/[C@H](C[C@@H]1CCNC1=O)NC(=O)[C@H](CC(C)C)NC(=O)OCc1ccccc1
SARS-CoV-2 M^pro
  IC50: 1710 nM

## CC(C)C[C@H](NC(=O)OCc1ccc(NC(=O)CCC(=O)NCCOCCOCCNc2cccc3c2C(=O)N(C2CCC(=O)N(C)C2=O)C3=O)cc1)C(=O)N[C@@H](C[C@@H]1CCNC1=O)C(=O)C(=O)NC1CC1 (stereo partly shown)
SARS-CoV-2 M^pro
  IC50: 110 nM

## O=C(N[C@H](C(=O)N[C@@H](C[C@@H]1CCNC1=O)C(=O)C(=O)NC1CC1)C1CCCCC1)OCc1ccccc1
SARS-CoV-2 M^pro
  IC50: 380 nM
PL^pro
  IC50: > 20000 nM

## O=CC(CC1CCNC1=O)NC(=O)C1C2CCCC2CN1C(=O)OCc1ccccc1 (stereo not shown) [UAWJ9-36-1]
[4]
  melting temperature shift (ΔTm): significantly increased
SARS-CoV-2 [5]
  antiviral potency against SARS-CoV-2 relative to GC-376: less potent than GC-376
HCoV-OC43
  EC50: 46 nM
HCoV-229E
  EC50: 170 nM
HCoV-NL63
  antiviral activity against HCoV-NL63 in Vero E6 cells in the presence of P-gp inhibitor CP-100356: increased

## O=C(N[C@@H](Cc1ccccc1)C(=O)N[C@@H](C[C@@H]1CCNC1=O)C(O)S(=O)(=O)[O][Na+])OCc1ccccc1 (stereo partly shown)
SARS-CoV-2 M^pro
  IC50: 40 nM

## C#CCCC(=O)Nc1ccc(COC(=O)N[C@@H](CC(C)C)C(=O)N[C@@H](C[C@@H]2CCNC2=O)C(=O)C(=O)NC2CC2)cc1
SARS-CoV-2 M^pro
  IC50: 150 nM
PL^pro
  IC50: > 20000 nM
[1]
  CC50: > 250000 nM
[2]
  CC50: > 250000 nM

## CC(C)C[C@H](NC(=O)OCc1ccccc1)C(=O)N[C@@H](C[C@@H]1CCNC1=O)C(=O)C(=O)NC1CC1
SARS-CoV-2 M^pro; read-out: SARS-CoV-2 M^pro IC50, Table 2
  IC50: 45 nM
In vitro [6]
  CC50: > 100000 nM
In vitro [7]
  CC50: > 100000 nM

## CC(C)C[C@H](NC(=O)[C@@H](NC(=O)OCc1ccccc1)C(C)C)C(=O)N[C@@H](C[C@@H]1CCNC1=O)C(=O)C(=O)NC1CC1
SARS-CoV-2 M^pro
  IC50: 14 nM

## CC(C)C[C@H](NC(=O)OCc1ccccc1)C(=O)N[C@@H](CC1CCNC1=O)C(O)S(=O)(=O)O (stereo partly shown) [GC-376]
Calpain I
  IC50: 74 nM
Cathepsin L
  IC50: 4.4 nM

## CC(C)C[C@H](NC(=O)OCc1ccccc1)C(=O)N[C@@H](CC(C)C)C(=O)N[C@@H](C[C@@H]1CCNC1=O)C(=O)C(=O)NC1CC1
SARS-CoV-2 M^pro
  IC50: 12 nM

## O=C(NC1CC1)C(=O)[C@H](C[C@@H]1CCNC1=O)NC(=O)C1[C@H]2CCC[C@H]2CN1C(=O)OCc1ccccc1 (stereo partly shown)
SARS-CoV-2 M^pro
  IC50: 130 nM
In vitro [3]
  CC50: > 250000 nM

## CC(C)C[C@H](NC(=O)[C@H](Cc1ccccc1)NC(=O)OCc1ccccc1)C(=O)N[C@@H](C[C@@H]1CCNC1=O)C(=O)C(=O)NC(C)C
SARS-CoV-2 M^pro
  IC50: 130 nM
PL^pro
  IC50: > 20000 nM

## O=C(N[C@@H](Cc1ccccc1)C(=O)N[C@@H](C[C@@H]1CCNC1=O)C(=O)C(=O)NC1CC1)OCc1ccccc1
SARS-CoV-2 M^pro
  IC50: 780 nM
In vitro [6]
  CC50: > 100000 nM
In vitro [7]
  CC50: > 100000 nM

## CC(C)C[C@H](NC(=O)[C@H](Cc1ccccc1)NC(=O)OCc1ccccc1)C(=O)N[C@@H](C[C@@H]1CCNC1=O)C(=O)C(=O)NC1CC1
SARS-CoV-2 M^pro
  IC50: 13 nM

## CC1(C)C2CN(C(=O)OCc3ccccc3)C(C(=O)NC(C=O)CC3CCNC3=O)C21 (stereo not shown) [UAWJ9-36-3]
HCoV-OC43
  EC50: 59 nM
HCoV-229E
  EC50: 130 nM
HCoV-NL63
  antiviral activity against HCoV-NL63 in Vero E6 cells in the presence of P-gp inhibitor CP-100356: increased

## CC(C)[C@H](NC(=O)OCc1ccccc1)C(=O)N[C@@H](C[C@@H]1CCNC1=O)C(=O)C(=O)NC1CC1
SARS-CoV-2 M^pro
  IC50: 1290 nM

## CC(C)C[C@H](NC(=O)OCC1CCC(F)(F)CC1)C(=O)N[C@@H](C[C@@H]1CCNC1=O)C(=O)C(=O)NC1CC1
SARS-CoV-2 M^pro
  IC50: 60 nM
SARS-CoV-2 [8]
  EC50: 2600 nM
In vitro [3]
  CC50: > 250000 nM

## COC(=O)C[C@H](NC(=O)[C@H](C)NC(=O)[C@@H](NC(=O)OCc1ccccc1)C(C)C)C(=O)CF [Z-VAD-FMK] (Cbz-Val-Ala-Asp(OMe)-CH2F)
caspase-3
  IC50: 100 ± 40 nM

## O=C(N[C@@H](Cc1ccc(F)cc1)C(=O)N[C@@H](C[C@@H]1CCNC1=O)C(=O)C(=O)NC1CC1)OCc1ccccc1
SARS-CoV-2 M^pro
  IC50: 5500 nM
